Experimental data reported in patent US20220324865A1 (Bayer Aktiengesellschaft, priority 2018, published 2022).
pIC50: −log10 of the molar value.

Molecular target: T1, human EP3 receptor (Homo sapiens, UniProt P43115)
T1 construct: expressed in transfected cells; host or cells: CHO K1 (Chinese Hamster Ovary), stably co-transfected with Galpha16 and mitochondrial clytin
T1 sequence (P43115 1-390): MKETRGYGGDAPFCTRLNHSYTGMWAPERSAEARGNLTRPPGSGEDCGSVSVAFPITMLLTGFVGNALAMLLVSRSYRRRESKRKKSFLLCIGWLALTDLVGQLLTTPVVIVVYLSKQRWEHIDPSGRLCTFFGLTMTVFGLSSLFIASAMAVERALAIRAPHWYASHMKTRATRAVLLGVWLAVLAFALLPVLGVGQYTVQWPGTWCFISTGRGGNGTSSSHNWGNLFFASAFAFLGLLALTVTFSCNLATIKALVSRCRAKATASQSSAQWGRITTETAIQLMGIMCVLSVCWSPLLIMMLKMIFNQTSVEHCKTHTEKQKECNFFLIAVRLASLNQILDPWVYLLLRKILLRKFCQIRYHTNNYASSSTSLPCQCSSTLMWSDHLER
Test: Cellular in vitro assay for determining EP3 receptor activity (human EP3 cell line, sulprostone-stimulated calcium luminescence)
Format: cell-based
Conditions: CHO cells expressing human EP3 and mitochondrial Clytin; antagonist mode, sulprostone at EC50; read-out: EP3 CHO mtCLY ANTAG IC50
Method in brief: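 Antagonist activity was measured as inhibition of the luminescent calcium signal elicited by EC50 sulprostone, following 10 min compound pretreatment. The cell line was recombinant CHO K1 co-expressing human EP3, Gα16 and the photoprotein Clytin, reconstituted with coelenterazine.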

Compound	pIC50
COc1ccc2c(c1)OC(C)(C)CC2NC(=O)c1nn2cc(-c3cnc4cccc(C)c4c3)[nH]c(=O)c2c1C(C)C (stereo not drawn) [Example 4-79, 3-Isopropyl-N-(7-methoxy-2,2-dimethyl-3,4-dihydro-2-chromen-4-yl)-6-(5-methylquinolin-3-yl)-4-oxo-4,5-dihydropyrazolo[1,5-a]pyrazine-2-carboxamide]	8.12
Cc1cccc2ncc(-c3cn4nc(C(=O)NCc5cccc(CN6CCCC6)c5)c(C(C)C)c4c(=O)[nH]3)cc12 [Example 4-81, 6-(5-Methylquinolin-3-yl)-4-oxo-3-(propan-2-yl)-N-({3-[(pyrrolidin-1-yl)methyl]phenyl}methyl)-4,5-dihydropyrazolo[1,5-a]pyrazine-2-carboxamide]	8.35
Cc1cccc2ncc(-c3cn4nc(C(=O)NC(C)c5ccc(Cl)cc5Cl)c(C(C)C)c4c(=O)[nH]3)cc12 (stereo not drawn) [Example 4-82, N-[1-(2,4-Dichlorophenyl)ethyl]-3-isopropyl-6-(5-methyl-3-quinolyl)-4-oxo-5H-pyrazolo[1,5-a]pyrazine-2-carboxamide]	8.20
Cc1ccc2c(c1)C(NC(=O)c1nn3cc(-c4cnc5cccc(C)c5c4)[nH]c(=O)c3c1C(C)C)CC(C)(C)O2 (stereo not drawn) [Example 4-84, 3-Isopropyl-6-(5-methylquinolin-3-yl)-4-oxo-N-(2,2,6-trimethyl-3,4-dihydro-2H-chromen-4-yl)-4,5-dihydropyrazolo[1,5-a]pyrazine-2-carboxamide]	8.16
Cc1ccc(-c2cn3nc(C(=O)NC(C)c4ccc(F)cc4)cc3c(=O)[nH]2)cc1C (stereo not drawn) [Example 5-1, 6-(3,4-Dimethylphenyl)-N-[1-(4-fluorophenyl)ethyl]-4-oxo-5H-pyrazolo[1,5-a]pyrazine-2-carboxamide]	8.17
COc1ccc(C(C)NC(=O)c2cc3c(=O)[nH]c(-c4ccc(C)c(C)c4)cn3n2)cn1 (stereo not drawn) [Example 5-4, 6-(3,4-Dimethylphenyl)-N-[1-(6-methoxypyridin-3-yl)ethyl]-4-oxo-4,5-dihydropyrazolo[1,5-a]pyrazine-2-carboxamide]	8.60
Cc1ccc(-c2cn3nc(C(=O)NC4(C)CCC4)cc3c(=O)[nH]2)cc1C [Example 5-5, 6-(3,4-Dimethylphenyl)-N-(1-methylcyclobutyl)-4-oxo-4,5-dihydropyrazolo[1,5-a]pyrazine-2-carboxamide]	8.17

The remaining lines, values ahead:

pIC50	Compound
8.81	COc1ccc(C(NC(=O)c2nn3cc(-c4cnc5cccc(C)c5c4)[nH]c(=O)c3c2C(C)C)C2CC2)cc1 (stereo not drawn) [Example 4-78, N-[Cyclopropyl(4-methoxyphenyl)methyl]-3-isopropyl-6-(5-methyl-3-quinolyl)-4-oxo-5H-pyrazolo[1,5-a]pyrazine-2-carboxamide]
8.87	Cc1cccc2ncc(-c3cn4nc(C(=O)NCc5ccc6[nH]c(=O)[nH]c6c5)c(C(C)C)c4c(=O)[nH]3)cc12 [Example 4-80, 6-(5-Methylquinolin-3-yl)-4-oxo-N-[(2-oxo-2,3-dihydro-1H-benzimidazol-5-yl)methyl]-3-(propan-2-yl)-4,5-dihydropyrazolo[1,5-a]pyrazine-2-carboxamide]
8.70	COc1ccc(C(CCO)NC(=O)c2nn3cc(-c4cnc5cccc(C)c5c4)[nH]c(=O)c3c2C(C)C)cc1 (stereo not drawn) [Example 4-83, N-[3-Hydroxy-1-(4-methoxyphenyl)propyl]-3-isopropyl-6-(5-methyl-3-quinolyl)-4-oxo-5H-pyrazolo[1,5-a]pyrazine-2-carboxamide]
8.78	CC(NC(=O)c1cc2c(=O)[nH]c(-c3ccc4c(c3)OCCO4)cn2n1)c1ccc(F)cc1 (stereo not drawn) [Example 5-2, 6-(2,3-Dihydro-1,4-benzodioxin-6-yl)-N-[1-(4-fluorophenyl)ethyl]-4-oxo-5H-pyrazolo[1,5-a]pyrazine-2-carboxamide]
8.61	COc1ccc(C(CCO)NC(=O)c2cc3c(=O)[nH]c(-c4ccc5c(c4)OCCO5)cn3n2)cc1 (stereo not drawn) [Example 5-3, 6-(2,3-Dihydro-1,4-benzodioxin-6-yl)-N-[3-hydroxy-1-(4-methoxyphenyl)propyl]-4-oxo-5H-pyrazolo[1,5-a]pyrazine-2-carboxamide]
